Reference: article PMC5711494, “Sterol methyltransferase a target for anti-amoeba therapy: towards transition state analog and suicide substrate drug design” (Journal of Lipid Research, 2017)
Where two headings read alike, the source gives them in different places.

Experiments:
Ac24-SMT = test: Substrate kinetics and product analysis with recombinant Ac24-SMT; assay type: biochemical, Acanthamoeba castellanii; details: for product ratio generated by Ac24-SMT: normalized to cycloartenol at ∼70% conversion, saturating substrate, 45 min, 35°C
Protocol: (§1) The SMT constructs were transformed into competent BL21(DE3) cells and transformants selected against 100 µg/ml ampicillin. Expression of the SMT constructs and partial purification of the recombinant proteins followed the procedure described previously ([19]). […] In one tube, cells were induced by addition of isopropyl thio-galactoside at a final concentration of 1 mM and in the other tube, were un-induced. Cells were harvested 2 and 4 h after induction and an equal number of cells (as calculated by OD @600 nm) from induced (+) and un-induced (−) cultures were boiled with 1X Laemmli’s buffer and analyzed by SDS-PAGE (12%). Gel was stained with Coomassie Brilliant Blue (0.2%) to establish the molecular weight and purity of the expressed protein. Total protein concentrations were determined by Bradford dye-binding procedure with bovine γ-globulin as standard. To determine the catalytic activity of the recombinant proteins, enzyme assays were carried out using soluble bacterial extract (100,000 g fraction) in 9 ml test tubes containing a total of 600 µl assay volume for 45 min (initial velocity conditions). The assay buffer contained 20 mM phosphate buffer in 5% (v/v) glycerol at pH 7.5, sterol acceptor emulsified in 12 µl Tween 80 (1.2 g/l), and the substrate tested over the concentration range 5 to 150 µM against 1.2 mg of total protein. The reaction was initiated by the addition of saturating levels of [methyl-^3H3]SAM, 0.9 µCi, at 150 µM. Incubation mixtures were saponified with methanolic potassium hydroxide and extracted with hexane (3 × 1 ml) and concentrated to dryness providing the nonsaponifiable lipid fraction; radioactivity was determined by liquid scintillation counting. […]

Ac28-SMT = test: Substrate kinetics and product analysis with recombinant Ac28-SMT; assay type: biochemical, Acanthamoeba castellanii; set-up: catalytic competence (kcat/Km) with Ac28-SMT: unit not given here; details: for product ratio generated by Ac28-SMT: normalized, saturating substrate, 45 min, 35°C
Protocol: as §1

TbSMT = tested on: TbSMT; set-up: method as in PMID 26496686; details: cited from earlier work
[1] = tested on: Acanthamoeba castellanii trophozoites (strain ATCC 30010); test: Ac trophozoite growth inhibition and minimum amoebicidal concentration (trypan blue exclusion); assay type: cell-based; details: 48 h incubation
Protocol: Ac strain ATCC 30010 was inoculated (1 × 10^4 cells/ml) into tissue culture T-25 ml flasks, prepared with ATTC media 712 and cultured axenically in 5 ml medium at 25°C. Continuous cultures populated by trophozoites ([…]; the remaining cells were cysts) was maintained by sub-culturing 4–5 day growth arrested cells (1 × 10^6 cells/ml) into fresh medium. Steroidal inhibitor and azole susceptibility assays were performed in 24-well (4 × 6) microtiter plates (3 ml total). Trophozoite assay conditions and preparation of stock solutions made to 1 μg/10 μl and 1 μg/100 μl in DMSO through serial dilution to achieve final inhibitor concentrations of 64, 32, 16, 8, 4, 2, 1, 0.5, 0.25, 0.125, 0.0625, and 0.03125 µg/ml in 1% DMSO as reported previously for voriconazole incubated with Ac ([25]). Growth curves to evaluate treated trophozoites were initiated with 1 × 10^6 cells/ml and incubated for 48 h. Cell number was calculated with the use of a hemocytometer. The percentage of viable trophozoites following exposure to different concentrations of inhibitors was determined by the standard trypan blue exclusion method. Cells stained blue were considered nonviable. […] The IC50 of inhibitors against trophozoite growth was evaluated using GraphPad Prism with default setting (GraphPad Software Inc., CA).

[2] = tested on: Acanthamoeba castellanii trophozoites sterol biosynthesis; test: Sterol composition of treated Ac trophozoites (GC/MS); assay type: cell-based; details: to 48 h
Protocol: Amoeba and HEK cells were harvested at one or more points during growth in the presence and absence of steroidal inhibitor and azole at IC50 or MACs of the inhibitor or at 40 µM for HEK cells. Cell pellets were split with an internal standard of known amounts of 5α-cholestane added to one of the cell pellets for determination of sterol amounts in cells. Cells were saponified directly in aqueous methanolic potassium hydroxide at the reflux temperature for 1 h, which yielded total sterol (free plus sterol released from ester bonds). The resulting neutral lipids obtained by dilution with water and extraction with hexane (Fisher) were analyzed by GC/MS or HPLC-equipped with a diode array detector against cholesterol as a chromatographic reference. GC and HPLC retention times of sterols were compared with those obtained from authentic standards in our steroid collection ([18]–[22]). To determine the trophozoite sterol metabolome, GC/MS analysis of cell pellet nonsaponfiables was typically carried out using control cultures incubated in 5 ml medium in 25 ml T-flasks inoculated with 1 × 10^4 trophozoites/ml and cultured for 72 h. To generate significant cell pellets for sterol analysis of treated cells, trophozoites were cultured in 10 ml medium in 25 ml T-flasks inoculated with 1 × 10^5 cells/ml and grown for 48 h.

[3] = tested on: Acanthamoeba castellanii trophozoites (strain ATCC 30010); set-up: method as in PMID 26014948; details: previously reported; read-out: IC50 for Ac growth, previously reported value; cited from earlier work

Compound | product ratio generated by Ac24-SMT (Ac24-SMT) | product ratio generated by Ac28-SMT (Ac28-SMT) | also measured
CC(C)=CCCC(C)C1CC[C@@]2(C)C3=C(CCC12C)C1(C)CCC(O)CC1CC3 (stereo partly drawn) [14α-methylzymosterol] | 97 | 26 | –
C=C(CCC(C)C1CCC2(C)C3CCC4C(C)(C)C(O)CCC45CC35CCC12C)C(C)C (stereo not drawn) [24(28)-methylenecycloartanol] | 0 | 0 | –
C=C(CCC(C)C1CCC2C3=CCC4C(C)C(O)CCC4(C)C3CCC21C)C(C)C (stereo not drawn) [24(28)-methylenelophenol] | 0 | 100 | Km as substrate of Ac28-SMT (Ac28-SMT; from Lineweaver-Burk plots): ~25 µM; catalytic competence (kcat/Km) with Ac28-SMT (Ac28-SMT; from Lineweaver-Burk plots): ~0.03; kcat as substrate of Ac28-SMT (Ac28-SMT; from Lineweaver-Burk plots): ~0.013 s⁻¹
CC(=CCC[C@@H](C)[C@H]1CC[C@H]2C3=CC=C4C[C@@H](O)CC[C@]4(C)[C@H]3CC[C@]12C)CF [26-flourocholesta-5,7,24-trieniol] | – | – | partition ratio against TbSMT (TbSMT): 3
CC(C)=CCCC(C)C1CC[C@@]2(C)C3=C(CCC12C)C1(C)CCC(O)[C@@H](C)C1CC3 (stereo partly drawn) [31-norlanosterol] | 100 | 49 | –
CC(C)=CCCC(C)C1CCC2C3=CC=C4CC(O)CCC4(C)C3CCC21C (stereo not drawn) [cholesta-5,7,24-trienol] | 100 | 50 | –
CC(C)=CCC[C@@H](C)[C@H]1CC[C@@]2(C)[C@@H]3CC[C@H]4C(C)(C)[C@@H](O)CC[C@@]45C[C@@]35CC[C@]12C [cycloartenol] | 100 | 67 | Km (Michaelis / binding constant) as substrate of Ac24-SMT (Ac24-SMT; saturating SAM 150 µM, initial velocity conditions): ~44 µM; kcat (turnover rate) as substrate of Ac24-SMT (Ac24-SMT; saturating SAM, initial velocity conditions): about 1.5 min^−1
C=C(CC[C@@H](C)[C@H]1CC[C@@]2(C)[C@@H]3CC[C@H]4[C@H](C)[C@@H](O)CC[C@@]45C[C@@]35CC[C@]12C)C(C)C [cycloeucalenol] | 0 | 0 | –
C=C(CCC(C)C1CCC2C3=CCC4CC(O)CCC4(C)C3CCC21C)C(C)C (stereo not drawn) [episterol] | 0 | 64 | –
C=C(CCC(C)C1CCC2C3=C(CCC21C)C1(C)CCC(O)CC1CC3)C(C)C (stereo not drawn) [fecosterol] | 0 | 29 | –
CC(C)=CCC[C@@H](C)[C@H]1CC[C@@]2(C)C3=C(CC[C@]12C)[C@@]1(C)CC[C@H](O)C(C)(C)[C@@H]1CC3 [lanosterol] | 100 | 15 | –
C=C(CC[C@@H](C)[C@H]1CC[C@@]2(C)C3=C(CC[C@]12C)[C@@]1(C)CC[C@H](O)[C@@H](C)[C@@H]1CC3)C(C)C [obtusifoliol] | 0 | 0 | –
C[C@@H](c1ncncc1F)[C@](O)(Cn1cncn1)c1ccc(F)cc1F [voriconazole] | – | – | MAC (complete inhibition of growth, minimum amoebicidal concentration) [1]: 3 µM; IC50 ([1]; Acanthamoeba castellanii, ATCC30010, Ac trophozoites): 140 nM; accumulation of substrate of the target enzyme in treated trophozoites [2]: ≤ 1 % total; IC50 [3]: 390 nM
CC(C)=CCCC(C)C1CCC2C3=C(CCC21C)C1(C)CCC(O)CC1CC3 (stereo not drawn) [zymosterol] | 97 | 63 | –
eburicol | 0 | 0 | –
